Experiments:
Format in all cases: cell-based, human
let-7a miRNA [1] = experiment: pLet7a-Luc luciferase reporter gene assay in SW480 cells; conditions: normalized to Renilla luciferase
Experimental: (§1) Luciferase reporter gene assay. pLet7a-Luc reporter vector contains a let-7a miRNA specific binding site at the 3′UTR of the firefly (Photinus pyralis) luciferase gene obtained from Signosis Inc (FIG. 26). HCT116 and SW480 cells were transfected with the pLet7a-Luc reporter vector, Renilla luciferase expressing plasmid pRL-TK (Promega) along with DCAMKL-1 or scrambled siRNA using Transfectol™ (Ambion Inc.). Luciferase activity was determined as per the manufacturer's instructions (Dual-Luciferase Reporter Assay System; Promega) using a Monolight 2010 luminometer (Analytical Luminescence Laboratory, San Diego, Calif.) as described earlier [Stadler et al., 2008; Sossey-Alaoui et al., 1999]. The activity, normalized to Renilla Luciferase activity, is presented as relative luciferase units relative to control with ±SEM values. Assays were performed in triplicate wells and experiments were repeated 3 times.

miR-144 miRNA = experiment: pMiR-144-Luc luciferase reporter gene assay in AsPC-1 cells
Excerpt: (§2) Luciferase Reporter Gene Assay: pLet7a-Luc reporter vector contains a let-7a miRNA specific binding site at the 3′ UTR of the firefly (Photinus pyralis) luciferase gene, pMiR-144-Luc reporter vector containing miR-144 miRNA specific binding site at the 3′UTR of the firefly luciferase gene and KRAS-Luc reporter vector containing specific binding sites for let-7 family members at the 3′UTR of the firefly luciferase gene were obtained from Signosis, Inc. (Sunnyvale, Calif.). Human pancreatic cancer cell lines were transfected with the pLet7a-Luc, pMiR-144-Luc and KRAS-Luc reporter vectors separately with Renilla luciferase expressing plasmid pRL-TK (Promega) along with DCAMKL-1, or scrambled siRNA-using siPORT™ NeoFX™ transfection reagent (Ambion, Inc.). Luciferase activity was determined as per the manufacturer's instructions (Dual Luciferase Reporter Assay System; Promega) using a BioTek Synergy HT (Winooski, Vt.) as described herein above. The activity, normalized to Renilla luciferase activity, is presented as relative luciferase units relative to control with ±SEM values. Assays were performed in triplicate wells, and experiments were repeated 3 times.

DCAMKL-1 = experiment: siRNA knockdown of DCAMKL-1 in SW480 cells, real-time RT-PCR and Western blot
Experimental: Cell culture. HCT116, HCT116 p21^−/− and SW480 human colon adenocarcinoma cell lines were obtained from the American Type Culture Collection (ATCC) and grown in Dulbecco's modified eagle's medium (DMEM) supplemented with 10% fetal bovine serum and 100 U/mL penicillin-streptomycin in a humidified chamber at 37° C. with 5% CO2.
Silencer RNA. DCAMKL-1 siRNA (si-DCAMKL-1) sequence targeting the coding region of DCAMKL-1 (Accession # NM_004734 (SEQ ID NO:1)) ([…] (SEQ ID NO:3)) and scrambled control siRNAs (si-Scr) not matching any of the human genes were obtained (Ambion Inc., Austin, Tex.) and transfected using Transfectol™ (Ambion Inc.).
Real-time reverse transcription-PCR analyses. Total RNA isolated either from cells or from human colon cancer cell tumor xenograft samples was subjected to reverse transcription with Superscript™ II RNase H—Reverse Transcriptase and random hexanucleotide primers (Invitrogen, Carlsbad, Calif.). The cDNA was subsequently used to perform Real-time PCR by SYBR chemistry (SYBR® Green I; Molecular Probes) for specific transcripts using gene specific primers and Jumpstart Taq DNA polymerase (Sigma-Aldrich, St. Louis, Mo.). […] The changes in mRNA were expressed as fold change relative to control with ±SEM value.
miRNA analysis. Total miRNA was isolated using mirVana™ miRNA isolation kit (Ambion Inc.). Total miRNA isolated either from cells or from human colon cancer cell tumor xenograft samples were subjected to reverse transcription with Superscript™ II RNase H—Reverse Transcriptase and random hexanucleotide primers (Invitrogen, Carlsbad, Calif.). The cDNA was subsequently used to perform Real-time PCR by SYBR chemistry (SYBR® Green I; Molecular Probes) for pri-let-7a transcript using specific primers and Jumpstart Taq DNA polymerase (Sigma-Aldrich, St. Louis, Mo.). […] The changes in pri-miRNA were expressed as fold change relative to control with ±SEM value. Primers used are: […]
Western Blot analysis. HCT116 and SW480 cells were cultured in a 6 well plates to 40% confluency and were transfected with si-DCAMKL-1 or si-Scr for 72 h. Cells or the tumor xenograft samples were lysed and the concentration of protein was determined by BCA protein assay kit (Pierce Biotechnology Inc., Rockford, Ill.). Forty μg of the protein was size separated in a 7.5-15% SDS polyacrylamide gel and transferred onto a nitrocellulose membrane with a semidry transfer apparatus (Amersham-Pharmacia, Piscataway, N.J.). The membrane was blocked in 5% non-fat dry milk for 1 h and probed overnight with a rabbit anti-DCAMKL-1 antibody (Abcam Inc., Cambridge, Mass.) or with rabbit anti-c-Myc antibody (Santa Cruz). Subsequently, the membrane was incubated with anti-rabbit or anti-goat IgG horseradish peroxidase-conjugated antibodies (Amersham-Pharmacia) for 1 h at room temperature. The 82 kDa DCAMKL-1 and 49 kDa c-Myc proteins were detected using ECL™ Western Blotting detection reagents (Amersham-Pharmacia). Actin (43 kDa), used as loading control was identified using a goat polyclonal IgG (Santa Cruz Biotechnology Inc., Santa Cruz, Calif.).

[2] = test system: let-7 family binding sites (similar to KRAS 3' UTR); experiment: KRAS-Luc luciferase reporter gene assay in AsPC-1 cells
Excerpt: as §2

let-7a miRNA [3] = experiment: pLet7a-Luc luciferase reporter gene assay in HCT116 cells; conditions: normalized to Renilla luciferase
Experimental: as §1

let-7a miRNA [4] = experiment: pLet7a-Luc luciferase reporter gene assay in AsPC-1 cells
Excerpt: as §2

[5] = real-time RT-PCR, compared to controls

DCAMKL-1, sequence (O15075 other isoform, or with tags, fused parts or gaps): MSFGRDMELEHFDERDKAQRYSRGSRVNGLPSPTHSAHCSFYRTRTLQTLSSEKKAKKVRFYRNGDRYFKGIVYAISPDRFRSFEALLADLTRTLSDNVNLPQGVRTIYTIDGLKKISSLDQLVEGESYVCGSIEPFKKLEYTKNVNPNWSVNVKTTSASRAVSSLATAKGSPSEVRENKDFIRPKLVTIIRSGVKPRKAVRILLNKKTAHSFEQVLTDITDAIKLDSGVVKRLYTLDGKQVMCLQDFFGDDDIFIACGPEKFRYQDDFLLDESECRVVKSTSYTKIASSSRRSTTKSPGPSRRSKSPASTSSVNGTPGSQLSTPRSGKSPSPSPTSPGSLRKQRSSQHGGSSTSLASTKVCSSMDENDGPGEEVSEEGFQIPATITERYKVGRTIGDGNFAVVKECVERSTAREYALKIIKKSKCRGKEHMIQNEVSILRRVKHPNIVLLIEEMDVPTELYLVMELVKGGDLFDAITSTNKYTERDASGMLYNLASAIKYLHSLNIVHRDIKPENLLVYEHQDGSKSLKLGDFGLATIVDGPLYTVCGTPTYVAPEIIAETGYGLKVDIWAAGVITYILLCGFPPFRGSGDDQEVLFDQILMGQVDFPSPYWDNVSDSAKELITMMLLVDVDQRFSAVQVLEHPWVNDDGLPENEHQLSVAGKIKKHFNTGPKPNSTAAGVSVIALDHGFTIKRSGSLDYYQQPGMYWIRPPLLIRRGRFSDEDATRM

Substance: si-DCAMKL-1: siRNA targeting the coding region of DCAMKL-1 (NM_004734), sequence GGGAGUGAGAACAAUCUAC (SEQ ID NO:3) (chemistry not given here; listed as Homo sapiens)
- luciferase activity (let-7a binding site at 3' UTR) (let-7a miRNA [1]): dose dependent reduction
- luciferase activity (miR-144 binding site in 3' UTR) (miR-144 miRNA): dose-dependent reduction
- c-Myc mRNA and protein (DCAMKL-1): Reduction
- reduction in Notch-1 mRNA (DCAMKL-1): > 50%
- Notch-1 and cleaved Notch-1 protein (DCAMKL-1; Western blot): dose dependent reduction
- DCAMKL-1 protein (DCAMKL-1; Western blot, 72 h transfection): reduction
- reduction in DCAMKL-1 mRNA expression (DCAMKL-1; real-time RT-PCR): > 70%
- increase in pri-let-7a miRNA (DCAMKL-1; [5]): 4 fold
- increase in pri-miR-144 miRNA (DCAMKL-1; [5]): 3 fold
- luciferase activity (KRAS-Luc, let-7 family binding sites) [2]: dose-dependent reduction
- luciferase activity (let-7a binding site at 3' UTR) (let-7a miRNA [3]): dose dependent reduction
- luciferase activity (let-7a binding site in 3' UTR) (let-7a miRNA [4]): dose-dependent reduction
